Patent US20110263588A1, “TRICYCLIC COMPOUNDS AS GLUTAMATE RECEPTOR MODULATORS” (GLAXO GROUP LIMITED, priority 2008, published 2011)
Read-outs that look alike come from different tables or passages of the source.

Molecular target: T1, human mGlu5 recombinant receptor (Homo sapiens, UniProt P41594)
T1 construct: expressed in transfected cells; host or cells: inducible CHO cell line stably expressing Aequorin (Euroscreen FAST); doxycycline-responsive promoter
Assay: mGluR5 calcium mobilization in inducible mGluR5 CHO cells (aequorin luminescence, antagonist mode)
Type: cell-based
Conditions: antagonist activity against EC80 glutamate, inducible CHO cell line expressing human mGlu5 and Aequorin, read-out: IC50 (uM) Ca^++ flux
Description: mGluR5 Calcium Mobilization in Inducible mGluR5 CHO Cells
To functionally measure mGluR5 calcium mobilization in response to agonists or antagonists, an inducible CHO cell line expressing the human mGlu5 recombinant receptor was used. This cell line also stably expressed Aequorin (Euroscreen FAST), a photoprotein that spontaneously couples with coelenterazine h when added exogenously in the cell media. The Aequorin-coelenterzine h complex undergoes a conformational change upon binding of calcium ions which results in the emission of blue light (wavelength 469 nm) that was measured using a Hamamatsu Functional Drug Screening System 6000.
mGluR5 expression was induced by a doxycycline responsive promoter by growing cells to mid-log phase for 18 hours in media without antibiotics and supplemented with doxycycline (600 ng/mL). Cells were detached from the plate by gentle flushing using PBS-EDTA (5 mM EDTA) and centrifuged for collection and resuspended in “assay buffer” (HBSS, 2.1 mM CaCl2, 2 ug/mL glutamate-pyruvate transaminase, 4 mM MEM sodium pyruvate, and 0.1% protease free BSA). Cells were incubated with coelenterazine h (Molecular Probes) at room temperature for 4 hours before testing.
To measure mGluR5 antagonist activity, cell suspensions containing test compound were mixed with EC80 glutamate and emission of light was recorded. Reference and test compounds were tested at several concentrations in duplicate to obtain dose response curves using the Prism GraphPad software (GraphPad Software Inc.). IC50 values were calculated from the dose response curves using the equation:
Y=Bottom+(Top−Bottom)/(1+10̂((LogEC50−X)*HillSlope)).

T1 sequence (P41594 21-1212): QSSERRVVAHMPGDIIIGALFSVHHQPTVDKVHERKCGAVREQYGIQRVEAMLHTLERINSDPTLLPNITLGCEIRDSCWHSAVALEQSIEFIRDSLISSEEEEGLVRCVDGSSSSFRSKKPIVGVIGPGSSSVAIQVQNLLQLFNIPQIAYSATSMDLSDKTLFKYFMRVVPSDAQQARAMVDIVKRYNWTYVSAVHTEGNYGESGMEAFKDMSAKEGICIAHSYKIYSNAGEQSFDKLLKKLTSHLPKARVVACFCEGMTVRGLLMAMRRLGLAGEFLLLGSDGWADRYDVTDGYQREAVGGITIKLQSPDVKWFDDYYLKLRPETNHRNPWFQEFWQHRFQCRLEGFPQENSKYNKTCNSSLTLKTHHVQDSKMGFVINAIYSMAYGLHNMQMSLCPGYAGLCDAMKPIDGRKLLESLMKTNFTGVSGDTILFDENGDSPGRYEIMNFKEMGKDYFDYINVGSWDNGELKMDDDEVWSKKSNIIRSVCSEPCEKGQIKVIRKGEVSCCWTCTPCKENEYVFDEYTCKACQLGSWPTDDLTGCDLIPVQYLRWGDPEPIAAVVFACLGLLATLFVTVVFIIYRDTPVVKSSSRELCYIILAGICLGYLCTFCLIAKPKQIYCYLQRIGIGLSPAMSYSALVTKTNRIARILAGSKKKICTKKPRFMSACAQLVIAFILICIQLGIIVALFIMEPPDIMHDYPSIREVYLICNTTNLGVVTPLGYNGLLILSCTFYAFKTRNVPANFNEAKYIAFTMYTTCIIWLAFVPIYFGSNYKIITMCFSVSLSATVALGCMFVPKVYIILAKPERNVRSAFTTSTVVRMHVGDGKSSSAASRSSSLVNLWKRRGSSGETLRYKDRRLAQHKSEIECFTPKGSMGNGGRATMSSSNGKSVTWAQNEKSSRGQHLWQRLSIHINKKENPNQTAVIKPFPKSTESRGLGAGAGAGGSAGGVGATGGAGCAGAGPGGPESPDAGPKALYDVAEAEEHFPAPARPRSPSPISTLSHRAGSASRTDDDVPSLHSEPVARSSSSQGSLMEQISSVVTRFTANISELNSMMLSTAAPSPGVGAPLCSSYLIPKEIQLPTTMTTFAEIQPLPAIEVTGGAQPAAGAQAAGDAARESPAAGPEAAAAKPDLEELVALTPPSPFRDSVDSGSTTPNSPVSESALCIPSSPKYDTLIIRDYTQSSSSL

Row | SMILES | IC50 (Table 3) | IC50 (Table 2)
1 | Cn1nc(C(=O)Nc2ccc(Cl)cn2)c2c1-c1ccccc1OC2 [N-(5-chloropyridin-2-yl)-1-methyl-1,4-dihydrochromeno[4,3-c]pyrazole-3-carboxamide] | < 1 µM | –
2 | Cn1nc2c(c1C(=O)Nc1cccc(Cl)c1)COc1ccc(F)cc1-2 [Example 2, N-(3-Chlorophenyl)-8-fluoro-2-methyl-2,4-dihydrochromeno[4,3-c]pyrazole-3-carboxamide] | – | < 1 µM
3 | Cc1cccc(NC(=O)c2nn(C)c3c2CCc2ccc(C)nc2-3)n1 [Example 18] | – | < 1 µM
4 | Cc1cccc(NC(=O)c2nn(C)c3c2COc2cc(F)ccc2-3)n1 [Example 6, 7-Fluoro-1-methyl-N-(6-methylpyridin-2-yl)-1,4-dihydrochromeno[4,3-c]pyrazole-3-carboxamide] | – | > 10 µM
5 | CCn1nc(C(=O)Nc2cccc(C)n2)c2c1-c1ncccc1CC2 [Example 16, 1-Ethyl-N-(6-methylpyridin-2-yl)-4,5-dihydro-1H-pyrazolo[4,3-h]quinoline-3-carboxamide] | – | < 1 µM
6 | Cn1nc(C(=O)Nc2cccc(C(F)(F)F)c2)c2c1-c1ccccc1OC2 [1-methyl-N-(3-(trifluoromethyl)phenyl)-1,4-dihydrochromeno[4,3-c]pyrazole-3-carboxamide] | > 10 µM | –
7 | Cn1nc(C(=O)Nc2cccc(Cl)c2)c2c1-c1ccccc1OC2(C)C [Example 4, N-(3-Chlorophenyl)-1,4,4-trimethyl-1,4-dihydrochromeno[4,3-c]pyrazole-3-carboxamide] | – | > 10 µM
8 | COc1ccc(NC(=O)c2n[nH]c3c2COc2ccccc2-3)cc1 [N-(4-methoxyphenyl)-1,4-dihydrochromeno[4,3-c]pyrazole-3-carboxamide] | > 10 µM | –
9 | Cn1nc(C(=O)Nc2ccc(F)cc2)c2c1-c1ccccc1OC2 [N-(4-fluorophenyl)-1-methyl-1,4-dihydrochromeno[4,3-c]pyrazole-3-carboxamide] | > 10 µM | –
10 | Cn1nc(CNc2cccc(Cl)c2)c2c1-c1ccccc1OC2 [Example 12] | – | 1 to 10 µM
11 | COc1ccc(Cl)cc1NC(=O)c1nn(C)c2c1COc1ccccc1-2 [N-(5-chloro-2-methoxyphenyl)-1-methyl-1,4-dihydrochromeno[4,3-c]pyrazole-3-carboxamide] | 1 to 10 µM | –
12 | CN(C(=O)c1nn(C)c2c1COc1ccccc1-2)c1cccc(Cl)c1 [N-(3-chlorophenyl)-N,1-dimethyl-1,4-dihydrochromeno[4,3-c]pyrazole-3-carboxamide] | > 10 µM | –
13 | Cn1nc(C(=O)Nc2cccc(Cl)c2)c2c1-c1cc(F)ccc1OC2 [Example 1, N-(3-Chlorophenyl)-8-fluoro-1-methyl-1,4-dihydrochromeno[4,3-c]pyrazole-3-carboxamide] | – | < 1 µM
14 | COc1cccc(NC(=O)c2n[nH]c3c2COc2ccccc2-3)c1 [N-(3-methoxyphenyl)-1,4-dihydrochromeno[4,3-c]pyrazole-3-carboxamide] | > 10 µM | –
15 | Cn1nc(C(=O)Nc2ccc3c(c2)OCCO3)c2c1-c1ccccc1OC2 [Example 9, N-(2,3-Dihydrobenzo[b][1,4]dioxin-6-yl)-1-methyl-1,4-dihydrochromeno[4,3-c]pyrazole-3-carboxamide] | – | > 10 µM
16 | Cn1nc(C(=O)Nc2cccc(Cl)c2)c2c1-c1ccccc1SC2 [N-(3-chlorophenyl)-1-methyl-1,4-dihydrothiochromeno[4,3-c]pyrazole-3-carboxamide] | < 1 µM | –
17 | O=C(Nc1ccc(Cl)cc1)c1n[nH]c2c1CCc1ccccc1-2 [N-(4-chlorophenyl)-4,5-dihydro-1H-benzo[g]indazole-3-carboxamide] | > 10 µM | –
18 | Cc1cccc(NC(=O)c2nn(C)c3c2CCCc2cccnc2-3)n1 [Example 22, 3-Methyl-N-(6-methylpyridin-2-yl)-3,4,14-triazatricyclo[8.4.0.0̂{2,6}]tetradeca-1(14),2(6),4,10,12-pentaene-5-carboxamide] | – | < 1 µM
19 | Cn1nc(C(=O)Nc2cccc(Cl)c2)c2c1-c1ccccc1NC2 [Example 21, N-(3-Chlorophenyl)-1-methyl-4,5-dihydro-1H-pyrazolo[4,3-c]quinoline-3-carboxamide] | – | < 1 µM
